In US20210284638A1 (Saint Louis University, priority 2018, published 2021):
Where a name gives a salt, the structure may show the parent alone.

How the values were obtained:
Format in all cases: binding
[1] = target: T1, Recombinant human integrin αVβ8 (Homo sapiens, UniProt P06756+P26012); assay: Solid Phase Receptor Assay for αVβ8 function; conditions: plate-bound human LAP; read-out: αVβ8 SPRA IC50
T1 construct: purchased R&D Systems 4135-AV

[2] = target: T2, Recombinant human integrin α5β1 (Homo sapiens, UniProt P05556+P08648); assay: Solid Phase Receptor Assay (SPRA) for α5β1 function; conditions: plate-bound human fibronectin
T2 construct: purchased R&D Systems 3230-A5

[3] = target: T3, Recombinant human integrin αvβ1 (Homo sapiens, UniProt P05556+P06756); assay: Solid Phase Receptor Assay (SPRA) for αVβ1 function; conditions: plate-bound human fibronectin
T3 construct: purchased R&D Systems 6579-AV

[4] = target: T4, Recombinant human integrin αVβ3 (Homo sapiens, UniProt P05106+P06756); assay: Solid Phase Receptor Assay for αVβ3 function; conditions: plate-bound human vitronectin; read-out: αVβ3 SPRA IC50
T4 construct: purchased R&D Systems 3050-AV
T4 sequence (P06756 31-992 limits assumed): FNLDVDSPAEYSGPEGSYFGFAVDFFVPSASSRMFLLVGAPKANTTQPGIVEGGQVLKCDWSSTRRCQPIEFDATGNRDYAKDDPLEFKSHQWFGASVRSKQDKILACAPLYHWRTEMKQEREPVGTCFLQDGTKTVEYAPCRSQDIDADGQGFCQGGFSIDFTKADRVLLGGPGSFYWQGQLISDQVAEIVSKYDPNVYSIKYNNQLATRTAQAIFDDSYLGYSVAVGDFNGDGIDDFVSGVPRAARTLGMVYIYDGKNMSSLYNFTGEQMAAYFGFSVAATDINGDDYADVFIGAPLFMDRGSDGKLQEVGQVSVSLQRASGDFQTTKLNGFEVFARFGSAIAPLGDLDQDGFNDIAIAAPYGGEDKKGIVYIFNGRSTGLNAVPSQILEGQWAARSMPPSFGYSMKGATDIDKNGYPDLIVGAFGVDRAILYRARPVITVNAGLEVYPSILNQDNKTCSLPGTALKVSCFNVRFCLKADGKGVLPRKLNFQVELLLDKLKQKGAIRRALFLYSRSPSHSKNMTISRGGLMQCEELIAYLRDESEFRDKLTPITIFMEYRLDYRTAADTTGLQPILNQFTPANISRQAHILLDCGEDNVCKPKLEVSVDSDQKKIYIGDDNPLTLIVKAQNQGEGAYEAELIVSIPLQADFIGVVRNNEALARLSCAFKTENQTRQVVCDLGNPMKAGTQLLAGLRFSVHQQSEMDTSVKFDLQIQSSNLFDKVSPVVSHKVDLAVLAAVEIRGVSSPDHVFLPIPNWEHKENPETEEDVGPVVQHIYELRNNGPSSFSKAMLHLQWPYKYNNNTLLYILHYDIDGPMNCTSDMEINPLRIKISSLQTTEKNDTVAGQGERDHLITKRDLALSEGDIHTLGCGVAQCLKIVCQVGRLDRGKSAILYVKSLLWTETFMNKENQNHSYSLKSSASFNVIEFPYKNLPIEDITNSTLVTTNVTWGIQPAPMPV
T4 sequence (P05106 27-718 limits assumed): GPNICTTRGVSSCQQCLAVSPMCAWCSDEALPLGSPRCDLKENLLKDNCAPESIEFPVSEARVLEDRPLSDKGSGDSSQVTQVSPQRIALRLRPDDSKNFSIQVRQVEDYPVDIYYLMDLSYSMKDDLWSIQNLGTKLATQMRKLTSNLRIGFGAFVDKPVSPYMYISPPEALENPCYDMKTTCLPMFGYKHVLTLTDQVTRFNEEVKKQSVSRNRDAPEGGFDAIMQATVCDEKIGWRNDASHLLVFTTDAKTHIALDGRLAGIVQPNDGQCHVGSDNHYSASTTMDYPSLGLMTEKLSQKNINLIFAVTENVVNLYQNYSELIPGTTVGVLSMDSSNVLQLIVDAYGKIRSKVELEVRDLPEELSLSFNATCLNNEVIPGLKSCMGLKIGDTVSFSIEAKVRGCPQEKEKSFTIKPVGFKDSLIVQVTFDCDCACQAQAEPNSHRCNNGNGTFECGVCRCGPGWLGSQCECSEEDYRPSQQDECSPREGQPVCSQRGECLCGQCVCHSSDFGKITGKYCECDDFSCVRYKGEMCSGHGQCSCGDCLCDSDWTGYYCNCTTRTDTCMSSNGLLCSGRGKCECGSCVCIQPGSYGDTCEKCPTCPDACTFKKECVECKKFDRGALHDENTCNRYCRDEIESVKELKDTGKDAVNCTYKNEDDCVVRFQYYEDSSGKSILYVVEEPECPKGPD

T1 sequence (P06756 31-992 limits assumed): as the sequence (P06756 31-992 limits assumed) above
T1 sequence (P26012 43-684 limits assumed): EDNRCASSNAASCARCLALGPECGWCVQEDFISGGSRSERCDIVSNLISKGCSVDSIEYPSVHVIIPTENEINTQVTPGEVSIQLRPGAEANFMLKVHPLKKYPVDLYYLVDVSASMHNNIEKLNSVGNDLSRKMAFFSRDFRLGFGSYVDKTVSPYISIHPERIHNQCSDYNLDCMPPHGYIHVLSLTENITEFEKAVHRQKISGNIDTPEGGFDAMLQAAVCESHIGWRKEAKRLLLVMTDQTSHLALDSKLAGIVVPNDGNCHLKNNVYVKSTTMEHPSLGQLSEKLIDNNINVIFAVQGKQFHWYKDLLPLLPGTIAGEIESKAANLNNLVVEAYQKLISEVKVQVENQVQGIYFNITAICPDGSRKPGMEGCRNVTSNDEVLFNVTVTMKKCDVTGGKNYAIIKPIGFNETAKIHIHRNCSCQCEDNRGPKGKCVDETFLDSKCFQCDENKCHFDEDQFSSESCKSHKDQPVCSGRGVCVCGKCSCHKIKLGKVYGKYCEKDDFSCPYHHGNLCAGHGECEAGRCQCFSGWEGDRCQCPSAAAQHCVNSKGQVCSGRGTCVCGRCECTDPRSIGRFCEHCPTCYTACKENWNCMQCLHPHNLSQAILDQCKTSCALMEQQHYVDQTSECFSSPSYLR
T3 sequence (P06756 31-992 limits assumed): as the sequence (P06756 31-992 limits assumed) above
T3 sequence (P05556 21-728 limits assumed): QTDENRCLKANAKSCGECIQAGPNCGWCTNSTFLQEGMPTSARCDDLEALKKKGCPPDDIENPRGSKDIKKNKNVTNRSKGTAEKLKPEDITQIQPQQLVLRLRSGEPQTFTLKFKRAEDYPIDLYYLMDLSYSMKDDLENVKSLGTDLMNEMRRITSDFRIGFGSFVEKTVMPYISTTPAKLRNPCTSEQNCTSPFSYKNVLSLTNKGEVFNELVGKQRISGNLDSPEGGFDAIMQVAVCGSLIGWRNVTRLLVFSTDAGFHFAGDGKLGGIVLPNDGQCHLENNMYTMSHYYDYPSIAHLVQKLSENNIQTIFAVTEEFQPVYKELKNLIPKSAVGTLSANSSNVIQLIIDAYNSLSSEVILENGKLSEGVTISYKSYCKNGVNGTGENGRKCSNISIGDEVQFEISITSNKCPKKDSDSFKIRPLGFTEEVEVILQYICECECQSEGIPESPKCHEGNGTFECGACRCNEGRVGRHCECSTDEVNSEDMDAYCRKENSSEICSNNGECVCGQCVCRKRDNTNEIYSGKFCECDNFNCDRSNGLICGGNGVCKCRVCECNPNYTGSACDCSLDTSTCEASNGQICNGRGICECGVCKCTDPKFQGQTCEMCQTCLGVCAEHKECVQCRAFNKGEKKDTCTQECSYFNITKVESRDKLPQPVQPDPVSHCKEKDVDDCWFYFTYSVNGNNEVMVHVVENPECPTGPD
T2 sequence (P08648 42-995 limits assumed): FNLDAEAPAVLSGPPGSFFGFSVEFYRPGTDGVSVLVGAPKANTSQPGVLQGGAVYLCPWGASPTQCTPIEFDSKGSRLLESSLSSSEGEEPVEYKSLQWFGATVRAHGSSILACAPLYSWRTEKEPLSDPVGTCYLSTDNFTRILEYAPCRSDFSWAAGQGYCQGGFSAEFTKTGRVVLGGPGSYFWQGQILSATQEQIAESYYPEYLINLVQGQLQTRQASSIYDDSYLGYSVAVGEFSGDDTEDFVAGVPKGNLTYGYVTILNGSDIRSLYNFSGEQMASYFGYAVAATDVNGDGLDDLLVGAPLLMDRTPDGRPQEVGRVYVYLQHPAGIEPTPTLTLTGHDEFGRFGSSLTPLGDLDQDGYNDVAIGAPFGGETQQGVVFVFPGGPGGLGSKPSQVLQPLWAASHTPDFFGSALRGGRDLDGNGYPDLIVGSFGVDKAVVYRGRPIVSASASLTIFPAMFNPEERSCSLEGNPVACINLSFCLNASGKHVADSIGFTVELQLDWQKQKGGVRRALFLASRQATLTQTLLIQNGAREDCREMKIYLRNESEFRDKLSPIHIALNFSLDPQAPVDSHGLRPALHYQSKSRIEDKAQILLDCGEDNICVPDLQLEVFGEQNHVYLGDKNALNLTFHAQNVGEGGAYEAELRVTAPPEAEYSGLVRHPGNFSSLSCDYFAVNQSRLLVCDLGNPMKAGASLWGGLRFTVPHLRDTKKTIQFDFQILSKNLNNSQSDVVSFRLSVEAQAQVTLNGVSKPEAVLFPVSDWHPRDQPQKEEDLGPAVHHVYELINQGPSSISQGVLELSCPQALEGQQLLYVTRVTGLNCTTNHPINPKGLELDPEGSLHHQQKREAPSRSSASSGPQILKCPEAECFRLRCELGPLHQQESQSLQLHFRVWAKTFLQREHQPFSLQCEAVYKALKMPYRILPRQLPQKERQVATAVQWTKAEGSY
T2 sequence (P05556 21-728 limits assumed): as the sequence (P05556 21-728 limits assumed) above

SMILES: COCC1(c2ccc(OC)c(C(CC(=O)O)Cc3cc(OCCc4ccc5c(n4)NCCC5)n(C)n3)c2)CCOCC1 (stereo not shown) [Example 45, 3-(2-methoxy-5-(4-(methoxymethyl)tetrahydro-2H-pyran-4-yl)phenyl)-4-(1-methyl-5-(2-(5,6,7,8-tetrahydro-1,8-naphthyridin-2-yl)ethoxy)-1H-pyrazol-3-yl)butanoic acid]
- IC50 [1]: 1000 nM
- IC50 [2]: 13 nM
- IC50 [3]: 2.2 nM
- IC50 [4]: 1200 nM

SMILES: COc1ccc(C2(C(F)F)CC2)cc1C(CC(=O)O)Cc1cc(OCCc2ccc3c(n2)NCCC3)n(C)n1 (stereo not shown) [Example 21, 3-[5-[1-(difluoromethyl)cyclopropyl]-2-methoxy-phenyl]-4-[1-methyl-5-[2-(5,6,7,8-tetrahydro-1,8-naphthyridin-2-yl)ethoxy]pyrazol-3-yl]butanoic acid]
- IC50 [1]: 140 nM
- IC50 [2]: 29 nM
- IC50 [3]: 10 nM
- IC50 [4]: 340 nM

SMILES: COc1ccc(C2=CCOCC2)cc1C(CC(=O)O)Cc1csc(CCCc2ccc3c(n2)NCCC3)n1 (stereo not shown) [Example 37, 3-[5-(3,6-dihydro-2H-pyran-4-yl)-2-methoxy-phenyl]-4-[2-[3-(5,6,7,8-tetrahydro-1,8-naphthyridin-2-yl)propyl]thiazol-4-yl]butanoic acid]
- IC50 [1]: 83 nM
- IC50 [2]: 25 nM
- IC50 [3]: 3 nM
- IC50 [4]: 230 nM

SMILES: COc1ccc(C(C)(C)C)cc1C(CC(=O)O)Cc1csc(CCCc2ccc3c(n2)NCCC3)n1 (stereo not shown) [Example 28, 3-(5-(tert-butyl)-2-methoxyphenyl)-4-(2-(3-(5,6,7,8-tetrahydro-1,8-naphthyridin-2-yl)propyl)thiazol-4-yl)butanoic acid]
- IC50 [1]: 31 nM
- IC50 [2]: 25 nM
- IC50 [3]: 6 nM
- IC50 [4]: 1500 nM

SMILES: COc1ccc(C2=CCOCC2)cc1C(CC(=O)O)Cc1cc(OCCc2ccc3c(n2)NCCC3)n(C)n1 (stereo not shown) [Example 42]
- IC50 [1]: 41 nM
- IC50 [2]: 10 nM
- IC50 [3]: 2 nM
- IC50 [4]: 58 nM

SMILES: COc1ccc(C2=CCOCC2)cc1[C@H](CC(=O)O)Cc1csc(CCCc2ccc3c(n2)NCCC3)n1 [Example 37A, (S)-3-(5-(3,6-dihydro-2H-pyran-4-yl)-2-methoxyphenyl)-4-(2-(3-(5,6,7,8-tetrahydro-1,8-naphthyridin-2-yl)propyl)thiazol-4-yl)butanoic acid trifluoroacetate]
- IC50 [1]: 43 nM
- IC50 [2]: 17 nM
- IC50 [3]: 0.9 nM
- IC50 [4]: 160 nM

SMILES: COCC1(c2ccc(OC)c([C@H](CC(=O)O)Cc3cc(OCCc4ccc5c(n4)NCCC5)n(C)n3)c2)CCOCC1 [Example 48, (S)-3-(2-methoxy-5-(4-(methoxymethyl)tetrahydro-2H-pyran-4-yl)phenyl)-4-(1-methyl-5-(2-(5,6,7,8-tetrahydro-1,8-naphthyridin-2-yl)ethoxy)-1H-pyrazol-3-yl)butanoic acid]
- IC50 [1]: 540 nM
- IC50 [2]: 9.7 nM
- IC50 [3]: 2.4 nM
- IC50 [4]: 690 nM
